Laboratory results published in patent US9988379B2, “GPR40 receptor agonist, methods of preparing the same, and pharmaceutical compositions containing the same as an active agent” (LG CHEM, LTD., priority 2012, dated 2018).

Target: T1, human GPR40 (Homo sapiens, UniProt O14842)
T1 construct: expressed in transfected cells; host or cells: CHO-K1
Assay: Induction of Ca2+ (calcium flux assay) using human GPR40 expression cell line
Type: cell-based
Conditions: read-out: EC0.5
Method in brief: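 Read-out is intracellular Ca2+ flux on FlexStation after test compounds (DMSO stocks diluted 200-fold in assay buffer) were added to dye-loaded human GPR40/CHO-K1 cells. Cells had been cultured 24 h, then incubated 1 h at 37° C with Calcium 5 dye, HBSS-HEPES pH 7.4; EC0.5 from concentration plot.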

T1 sequence (O14842 whole entry): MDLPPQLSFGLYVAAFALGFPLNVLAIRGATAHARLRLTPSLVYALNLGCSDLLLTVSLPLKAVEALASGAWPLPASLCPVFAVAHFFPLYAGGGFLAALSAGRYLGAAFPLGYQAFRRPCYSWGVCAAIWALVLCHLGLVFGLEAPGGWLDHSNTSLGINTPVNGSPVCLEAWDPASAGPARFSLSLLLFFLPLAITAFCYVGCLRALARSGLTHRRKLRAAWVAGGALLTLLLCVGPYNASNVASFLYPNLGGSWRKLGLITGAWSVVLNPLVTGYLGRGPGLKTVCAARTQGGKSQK

Question: With O=C(O)CC1CCc2cc(OCc3ccc4c(cnn4Cc4ccccc4)c3)ccc21 (stereo not drawn) [Example 118, [5-(1-benzyl-1H-indazol-5-ylmethoxy)-indan-1-yl]-acetic acid] as the molecule, how does the EC50 read?
Answer: Its EC50 is 200 nM.

Question: For CC#C[C@@H](CC(=O)O)c1ccc(OCc2ccnc3c2c(F)cn3CC(C)C)cc1 [Example 225, (S)-3-[4-(3-fluoro-1-isobutyl-1H-pyrrolo[2,3-b]pyridin-4-ylmethoxy)-phenyl]-hex-4-ynoic acid], which EC50 is on record?
Answer: The EC50 was 13 nM.

Question: Which EC50 does the source give for Cc1c(COc2ccc(CCC(=O)O)cc2)ccc2ccn(-c3ccc(F)cc3)c12 [Example 14, 3-{4-[1-(4-fluoro-phenyl)-7-methyl-1H-indol-6-ylmethoxy]-phenyl}-propanoic acid] here?
Answer: The EC50 was 30 nM.

Question: For CC#C[C@@H](CC(=O)O)c1ccc(OCc2ccc3c(CN4CCOCC4)nn(CC(C)C)c3c2Cl)cc1 [Example 216, (S)-3-[4-(7-chloro-1-isobutyl-3-morpholin-4-ylmethyl-1H-indazol-6-ylmethoxy)-phenyl]-hex-4-ynoic acid], which EC50 is on record?
Answer: Its EC50 is 6 nM.

Question: Which EC50 does the source give for CC#C[C@@H](CC(=O)O)c1ccc(OCc2ccc3c(Cn4cccn4)nn(CC(C)C)c3c2C)cc1 [Example 228, (S)-3-[4-(1-isobutyl-7-methyl-3-pyrazol-1-ylmethyl-1H-indazol-6-ylmethoxy)-phenyl]-hex-4-ynoic acid] here?
Answer: The EC50 was 1 to 50 nM.

Question: For CC#C[C@@H](CC(=O)O)c1ccc(OCc2ccc(C)c3c2cnn3C(C)C)cc1 [Example 223, (S)-3-[4-(1-isopropyl-7-methyl-1H-indazol-4-ylmethoxy)-phenyl]-hex-4-ynoic acid], which EC50 is on record?
Answer: The EC50 was 11 nM.

Question: How did the EC50 turn out when O=C(O)CCc1ccc(NCc2ccc3ccn(CC4CCCCC4)c3c2Cl)cc1 [Example 11, 3-{4-[(7-chloro-1-cyclohexylmethyl-1H-indol-6-ylmethyl)-amino]-phenyl}-propanoic acid] was run?
Answer: Its EC50 is 400 nM.

Question: How did the EC50 turn out when CC#C[C@@H](CC(=O)O)c1ccc(OCc2ccc3cnn(CC(C)C)c3c2C)cc1 [Example 211, (S)-3-[4-(1-isobutyl-7-methyl-1H-indazol-6-ylmethoxy)-phenyl]-hex-4-ynoic acid] was run?
Answer: The EC50 was 4 nM.

Question: With CC#C[C@@H](CC(=O)O)c1ccc(OCc2ccc3ccn(Cc4ccc(C(F)(F)F)cc4)c3c2C)cc1 [Example 29, (S)-3-{4-[7-methyl-1-(4-trifluoromethyl-benzyl)-1H-indol-6-ylmethoxy]-phenyl}-hex-4-ynoic acid] as the molecule, how does the EC50 read?
Answer: The EC50 was 70 nM.

Question: For CC#C[C@@H](CC(=O)O)c1ccc(OCc2ccc3ccn(Cc4cscn4)c3c2C)cc1 [Example 56, (S)-3-[4-(7-methyl-1-thiazol-4-ylmethyl-1H-indol-6-ylmethoxy]-phenyl}-hex-4-ynoic acid], which EC50 is on record?
Answer: Its EC50 is 1 to 50 nM.

Question: CC#C[C@@H](CC(=O)O)c1ccc(OCc2ccc3c(CN4CCC(F)(F)C4)cn(CC(C)C)c3n2)cc1 [Example 231, (S)-3-{4-[3-(3,3-difluoro-pyrrolidin-1-ylmethyl)-1-isobutyl-1H-pyrrolo[2,3-b]pyridin-6-ylmethoxy]-phenyl}-hex-4-ynoic acid] was tested. Which EC50 did it give?
Answer: Its EC50 is 1 to 50 nM.

Question: CC#C[C@@H](CC(=O)O)c1ccc(OCc2ccc3c(COCC)nn(CC(C)C)c3c2)cc1 [Example 191, (S)-3-[4-(3-ethoxymethyl-1-isobutyl-1H-indazol-6-ylmethoxy)-phenyl]-hex-4-ynoic acid] was tested. Which EC50 did it give?
Answer: The EC50 was 10 nM.

Question: CC#C[C@@H](CC(=O)O)c1ccc(OCc2ccc3cnn(Cc4ccc(C)nc4)c3c2)cc1 [Example 93, (S)-3-{4-[1-(6-methyl-pyridin-3-ylmethyl)-1H-indazol-6-ylmethoxy]-phenyl}-hex-4-ynoic acid] was tested. Which EC50 did it give?
Answer: Its EC50 is 50 to 500 nM.

Question: Which EC50 does the source give for CC#C[C@@H](CC(=O)O)c1ccc(OCc2ccc3c(COC(C)C)nn(CC(C)C)c3c2)cc1 [Example 193, (S)-3-[4-(1-isobutyl-3-isopropoxymethyl-1H-indazol-6-ylmethoxy)-phenyl]-hex-4-ynoic acid] here?
Answer: The EC50 was 3 nM.

Question: Which EC50 does the source give for CC#C[C@@H](CC(=O)O)c1ccc(OCc2ccc3nn(CCOCC)cc3c2)cc1 [Example 160, (S)-3-{4-[2-(2-ethoxy-ethyl)-2H-indazol-5-ylmethoxy]-phenyl}-hex-4-ynoic acid] here?
Answer: The EC50 was 50 to 500 nM.

Question: How did the EC50 turn out when O=C(O)CCc1ccc(NCc2ccc3ccn(Cc4ccccc4)c3c2)cc1 [Example 2, 3-{4-[(1-benzyl-1H-indol-6-ylmethyl)-amino]-phenyl}-propanoic acid] was run?
Answer: Its EC50 is 30 nM.

Question: With CC(C)n1cc2ccc(COc3ccc([C@H](CC(=O)O)c4ccon4)cc3)cc2n1 [Example 99, (S)-3-[4-(2-isopropyl-2H-indazol-6-ylmethoxy)-phenyl]-3-isoxazol-3-yl-propanoic acid] as the molecule, how does the EC50 read?
Answer: Its EC50 is 1300 nM.

Question: CC#C[C@@H](CC(=O)O)c1ccc(OCc2ccc3cnn(Cc4cccnc4)c3c2C)cc1 [Example 226, (S)-3-[4-(7-methyl-1-pyridin-3-ylmethyl-1H-indazol-6-ylmethoxy)-phenyl]-hex-4-ynoic acid] was tested. Which EC50 did it give?
Answer: Its EC50 is 9 nM.

Question: For O=C(O)CCc1ccc(NCc2ccc3c(Cl)c(Cl)n(Cc4ccccc4)c3c2)cc1 [Example 6, 3-{4-[(1-benzyl-2,3-dichloro-1H-indol-6-ylmethyl)-amino]-phenyl}-propanoic acid], which EC50 is on record?
Answer: The EC50 was 100 nM.

Question: For CC#C[C@@H](CC(=O)O)c1ccc(OCc2cccc3c(Cl)nn(C)c23)cc1 [Example 201, (S)-3-[4-(3-chloro-1-methyl-1H-indazol-7-ylmethoxy)-methyl]-hex-4-ynoic acid], which EC50 is on record?
Answer: Its EC50 is 10 nM.

Question: CC#C[C@@H](CC(=O)O)c1ccc(OCc2cccc3c2cnn3C(C)C)cc1 [Example 190, (S)-3-[4-(1-isopropyl-1H-indazol-4-ylmethoxy)-phenyl]-hex-4-ynoic acid] was tested. Which EC50 did it give?
Answer: Its EC50 is 40 nM.

Question: How did the EC50 turn out when CC#C[C@@H](CC(=O)O)c1ccc(OCc2cccc3c(CC(C)C)nn(C)c23)cc1 [Example 207, (S)-3-[4-(3-isobutyl-1-methyl-1H-indazol-7-ylmethoxy)-phenyl]-hex-4-ynoic acid] was run?
Answer: Its EC50 is 1 to 50 nM.

Question: For CC#C[C@@H](CC(=O)O)c1ccc(OCc2cccc3c2ccn3Cc2ccccc2)cc1 [Example 31, (S)-3-[4-(1-benzyl-1H-indol-4-ylmethoxy)-phenyl]-hex-4-ynoic acid], which EC50 is on record?
Answer: The EC50 was 30 nM.

Question: For CC#C[C@@H](CC(=O)O)c1ccc(OCc2cc3cnn(CC(C)C)c3cc2C)cc1 [Example 183, (S)-3-[4-(1-isobutyl-6-methyl-1H-indazol-5-ylmethoxy)-phenyl]-hex-4-ynoic acid], which EC50 is on record?
Answer: Its EC50 is 1 to 50 nM.

Question: How did the EC50 turn out when CC#C[C@@H](CC(=O)O)c1ccc(OCc2ccc3ccn(Cc4ccc(F)c(F)c4)c3c2C)cc1 [Example 51, (S)-3-{4-[1-(3,4-difluoro-benzyl)-7-methyl-1H-indol-6-ylmethoxy]-phenyl}-hex-4-ynoic acid] was run?
Answer: The EC50 was 50 to 500 nM.

Question: Which EC50 does the source give for Cc1cc(COc2ccc3c(c2)OCC3CC(=O)O)cc2cnn(Cc3ccccc3)c12 (stereo not drawn) [Example 128, [6-(1-benzyl-7-methyl-1H-indazol-5-ylmethoxy)-2,3-dihydro-benzofuran-3-yl]-acetic acid] here?
Answer: Its EC50 is 50 to 500 nM.

Question: CC#C[C@@H](CC(=O)O)c1ccc(OCc2cnc3c(ccn3Cc3ccccc3)c2)cc1 [Example 143, (S)-3-[4-(1-benzyl-1H-pyrrolo[2,3-b]pyridin-5-ylmethoxy)-phenyl]-hex-4-ynoic acid] was tested. Which EC50 did it give?
Answer: The EC50 was 1 to 50 nM.

Question: For CC#C[C@@H](CC(=O)O)c1ccc(OCc2ccc3nnn(CC(C)C)c3c2)cc1 [Example 166, (S)-3-[4-(3-isobutyl-3H-benzotriazol-5-ylmethoxy)-phenyl]-hex-4-ynoic acid], which EC50 is on record?
Answer: The EC50 was 50 to 500 nM.

Question: How did the EC50 turn out when CC#C[C@@H](CC(=O)O)c1ccc(OCc2ccc3ccn(Cc4ccc(F)cc4)c3c2C)cc1 [Example 50, (S)-3-{4-[1-(4-fluoro-benzyl)-7-methyl-1H-indol-6-ylmethoxy]-phenyl}-hex-4-ynoic acid] was run?
Answer: Its EC50 is 50 to 500 nM.

Question: O=C(O)CCc1ccc(NCc2ccc3ccn(-c4ccc(F)cc4)c3c2)cc1 [Example 10, 3-(4-{[1-(4-fluoro-phenyl)-1H-indol-6-ylmethyl]-amino}-phenyl)-propanoic acid] was tested. Which EC50 did it give?
Answer: Its EC50 is 700 nM.

Question: How did the EC50 turn out when CCOCCn1ncc2cc(COc3ccc4c(c3)OCCC4CC(=O)O)ccc21 (stereo not drawn) [Example 149, {7-[1-(2-ethoxy-ethyl)-1H-indazol-5-ylmethoxy]-chroman-4-yl}-acetic acid] was run?
Answer: The EC50 was ≥ 500 nM.

Question: With CC#C[C@@H](CC(=O)O)c1ccc(OCc2cccc3c(CCCC)nn(C)c23)cc1 [Example 206, (S)-3-[4-(3-butyl-1-methyl-1H-indazol-7-ylmethoxy)-phenyl]-hex-4-ynoic acid] as the molecule, how does the EC50 read?
Answer: The EC50 was 1 to 50 nM.

Question: With CC#C[C@@H](CC(=O)O)c1ccc(OCc2cccc3c2ccn3-c2ccc(F)cc2C)cc1 [Example 32, (S)-3-{4-[1-(4-fluoro-2-methyl-phenyl)-1H-indol-4-ylmethoxy]-phenyl}-hex-4-ynoic acid] as the molecule, how does the EC50 read?
Answer: Its EC50 is 40 nM.

Question: For O=C(O)C[C@@H](c1ccc(OCc2ccc3ccn(Cc4ccccc4)c3n2)cc1)c1ccon1 [Example 91, (S)-3-[4-(1-benzyl-1H-pyrrolo[2,3-b]pyridin-6-ylmethoxy)-phenyl]-3-isoxazol-3-yl-propanoic acid], which EC50 is on record?
Answer: The EC50 was 30 nM.

Question: For CC#C[C@@H](CC(=O)O)c1ccc(OCc2ccc3cnn(CC(C)C)c3c2)cc1 [Example 114, (S)-3-[4-(1-isobutyl-1H-indazol-6-ylmethoxy)-phenyl]-hex-4-ynoic acid], which EC50 is on record?
Answer: Its EC50 is 1 to 50 nM.

Question: For O=C(O)CCc1ccc(OCc2ccc3ccn(CC4CCCCC4)c3c2)cc1 [Example 19, 3-[4-(1-cyclohexylmethyl-1H-indol-6-ylmethoxy)-phenyl]-propanoic acid], which EC50 is on record?
Answer: The EC50 was 400 nM.

Question: Which EC50 does the source give for CC#C[C@@H](CC(=O)O)c1ccc(OCc2ccc3cnn(CC4CCCC4)c3c2)cc1 [Example 173, (S)-3-[4-(1-cyclopentylmethyl-1H-indazol-6-ylmethoxy)-phenyl]-hex-4-ynoic acid] here?
Answer: Its EC50 is 1 to 50 nM.

Question: With CC#C[C@@H](CC(=O)O)c1ccc(OCc2ccc3cn(Cc4ccc(F)cc4)nc3c2)cc1 [Example 67, (S)-3-{4-[2-(4-fluoro-benzyl)-2H-indazol-6-ylmethoxy]-phenyl}-hex-4-ynoic acid] as the molecule, how does the EC50 read?
Answer: Its EC50 is 70 nM.

Question: Which EC50 does the source give for CC#C[C@@H](CC(=O)O)c1ccc(OCc2ccc3ccn(Cc4ccccc4)c3c2Cl)cc1 [Example 40, (S)-3-[4-(1-benzyl-7-chloro-1H-indol-6-ylmethoxy)-phenyl]-hex-4-ynoic acid] here?
Answer: The EC50 was 60 nM.
